Measurements from article PMC12298827, “Subchronic Toxicities of Four Per- and Polyfluoroalkyl Substances (PFASs) by Oral Exposure in Sprague–Dawley Rats” (Toxics, 2025).

System: male and female Sprague–Dawley rats
Test: 90-day subchronic oral gavage toxicity study
Format: in vivo, rat
Conditions: male
Procedure: Subchronic (90-day) studies were performed in accordance with current U.S. EPA’s Toxic Substances Control Act Good Laboratory Practice (GLP) Standards, with the following two general exceptions to the GLP guidelines: Analysis of the dose formulations was conducted according to RTI-approved Standard Operating Procedures, and corn oil (the vehicle) was not characterized (certificate of analysis from the vendor is available in the appendices to the final reports). Male and female Sprague–Dawley rats (five dose levels plus a control, n = 10/sex/dose group, corn oil vehicle dose volume of 3 mL/kg; oral gavage) were used in these studies, and the rats were euthanized on SD 91. The dose levels for PFHI were 0, 12.5, 25, 50, 100, and 200 mg/kg-day. The dose levels for MHFPK were 0, 18.8, 37.5, 75, 150, and 300 mg/kg-day. The dose levels for PFNAC were 0, 0.1, 0.3, 1.0, 3.0, and 10 mg/kg-day for male rats and 0, 0.3, 1.0, 3.0, 10, and 30 mg/kg-day for female rats. For CTFPA, the dose levels were 0, 1.9, 3.8. 7.5, 15, and 30 mg/kg-day for male rats and 0, 6.3, 12.5, 25, 50, and 100 mg/kg-day for female rats. For each PFAS, three batches of dosing solution were prepared. The time between the batch preparation of the dosing solutions ranged between 29 and 39 days. Blood samples were collected from all the rats at termination for serum chemistry, hematology, coagulation, and the analysis of the parent PFAS chemical in the plasma. In vivo data collection and further detail on the endpoints examined postmortem are described below.
The rats were observed twice daily for morbidity and mortality throughout the study period. At least once prior to randomization to test groups and weekly thereafter, the rats were physically examined, and bodyweights were obtained. Feed consumption was quantified weekly starting on SD 1.
Neurotoxicity was evaluated using the functional observational battery (FOB) and measuring locomotor activity (LMA) 2–4 h post dosing on SDs 78–80 and 80–84, respectively. For both the 14- and 90-day studies, an ophthalmologic examination was conducted prior to randomization and near the end of the study, using indirect ophthalmoscopy and slit–lamp biomicroscopy (as needed) after the administration of a mydriatic solution.
Hematology, biochemistry, and coagulation endpoints were measured at the termination of the study. A Siemens Advia 2120i hematology analyzer (Siemens Healthineers, Erlangen, Germany) was used to measure (or calculate) the parameters related to the complete blood count, leukocyte differential count, and reticulocyte count. The hematology parameters are listed and described in Table 2. The prothrombin time […] and activated partial thromboplastin time (APTT) were measured using an Instrumentation Laboratory (Bedford, MA, USA) ACL Elite Pro coagulation analyzer (laser–nephelometric centrifugal method).
At necropsy, the rats were visually examined for external abnormalities and organ weights (absolute and relative to the BW and brain weight), which were recorded (paired organs weighed together). The tissues were preserved in 10% neutral buffered formalin (NBF), except for the ocular tissues, testes, and epididymides, which were preserved in modified Davidson’s fixative and later transferred to 10% NBF. Bone marrow smears were prepared from the femurs, and the slides were air-dried, fixed in methanol, stained, and stored at room temperature for possible future evaluation. The preserved tissues were embedded in paraffin, sectioned, stained with hematoxylin and eosin, and examined by a board-certified veterinary pathologist.
Statistical analysis was performed using Provantis™ Version 10 or greater (Instem LSS, Limited; Stone, Staffordshire, UK). Differences among the treatment groups compared to the control were evaluated using one-way analysis of variance (ANOVA) if the underlying assumptions of a normal distribution (Shapiro–Wilk test) and the homogeneity of the variance (Levene’s test) were satisfied. […]

CC(=O)C(F)(F)C(F)(F)C(F)(F)F [MHFPK, Methyl heptafluoropropyl ketone]
ALB (75 mg/kg-day): 3.18 ± 0.15 g/dL | ALPi (75 mg/kg-day): 121.9±37.5 U/L | APTT (75 mg/kg-day): 17.79 s | BUN (75 mg/kg-day): 15.8 ± 1.8 mg/dL | CHOL (75 mg/kg-day): 67.2 ± 7.1 mg/dL | GLOB (75 mg/kg-day): 3.70 ± 0.19 g/dL | GLUC (75 mg/kg-day): 214.9 ± 18.3 mg/dL | HCT (75 mg/kg-day): 50.90±1.81% | HGB (75 mg/kg-day): 15.70 ± 0.72 g/dL | Kidney Weight (75 mg/kg-day): 3.25 g | Kidney/Body Weight (75 mg/kg-day): 0.54% | Kidney/Brain Weight (75 mg/kg-day): 146% | Liver Weight (75 mg/kg-day): 15.73 g | Liver/Body Weight (75 mg/kg-day): 2.62% | Liver/Brain Weight (75 mg/kg-day): 706% | MPV (75 mg/kg-day): 7.92 ± 0.76 fL | PT (75 mg/kg-day): 16.37 s | RBC (75 mg/kg-day): 9.195±0.417 M/µL | Total BW change (75 mg/kg-day): 308.68 g | Total Food Consumed (75 mg/kg-day): 2218 g | % BW Gain (150 mg/kg-day): 104.78% | % Diff, % BW Gain (150 mg/kg-day): 7.09% | % Diff, Total BW change (150 mg/kg-day): 6.62% | % Diff, Total Food Consumed (150 mg/kg-day): 3.52% | A/G (150 mg/kg-day): 0.85±0.05 ratio | ABNEUT (150 mg/kg-day): 1.761±0.490 K/µL | ABRETi (150 mg/kg-day): 181.45±26.70 10^9/L | ABSEOS (150 mg/kg-day): 0.155±0.028 K/µL | ALB (150 mg/kg-day): 3.16 ± 0.18 g/dL | ALPi (150 mg/kg-day): 123.9±21.1 U/L | APTT (150 mg/kg-day): 18.41 s | BUN (150 mg/kg-day): 14.6 ± 1.7 mg/dL | CHOL (150 mg/kg-day): 71.1 ± 12.3 mg/dL | Decrease in the adrenal/BW ratio (150 mg/kg-day): 20% | GLOB (150 mg/kg-day): 3.72 ± 0.20 g/dL | GLUC (150 mg/kg-day): 206.8 ± 44.7 mg/dL | HCT (150 mg/kg-day): 50.21±1.86% | HGB (150 mg/kg-day): 15.30 ± 0.78 g/dL | Kidney Weight (150 mg/kg-day): 3.28 g | Kidney/Body Weight (150 mg/kg-day): 0.54% | Kidney/Brain Weight (150 mg/kg-day): 150% | Liver Weight (150 mg/kg-day): 15.50 g | Liver/Body Weight (150 mg/kg-day): 2.54% | Liver/Brain Weight (150 mg/kg-day): 709% | MPV (150 mg/kg-day): 8.53 ± 0.84 fL | PT (150 mg/kg-day): 16.77 s | RBC (150 mg/kg-day): 9.254±0.319 M/µL | Total BW change (150 mg/kg-day): 313.14 g | Total Food Consumed (150 mg/kg-day): 2253 g | % BW Gain (300 mg/kg-day): 102.36% | % Diff, % BW Gain (300 mg/kg-day): 4.62% | % Diff, Total BW change (300 mg/kg-day): 2.35% | % Diff, Total Food Consumed (300 mg/kg-day): 0.89% | A/G (300 mg/kg-day): 0.88±0.07 ratio | ABNEUT (300 mg/kg-day): 1.674±0.435 K/µL | ABRETi (300 mg/kg-day): 174.98±22.88 10^9/L | ABSEOS (300 mg/kg-day): 0.139±0.055 K/µL | ALB (300 mg/kg-day): 3.24 ± 0.18 g/dL | ALPi (300 mg/kg-day): 123.2±28.8 U/L | APTT (300 mg/kg-day): 17.66 s | Adrenal/BW ratio (300 mg/kg-day): no effect | BUN (300 mg/kg-day): 14.8 ± 3.7 mg/dL | CHOL (300 mg/kg-day): 76.0 ± 22.0 mg/dL | GLOB (300 mg/kg-day): 3.70 ± 0.19 g/dL | GLUC (300 mg/kg-day): 206.4 ± 24.4 mg/dL | HCT (300 mg/kg-day): 49.25±1.52% | HGB (300 mg/kg-day): 15.18 ± 0.47 g/dL | Kidney Weight (300 mg/kg-day): 3.24 g | Kidney/Body Weight (300 mg/kg-day): 0.55% | Kidney/Brain Weight (300 mg/kg-day): 144% | Liver Weight (300 mg/kg-day): 15.58 g | Liver/Body Weight (300 mg/kg-day): 2.61% | Liver/Brain Weight (300 mg/kg-day): 693% | MPV (300 mg/kg-day): 8.58 ± 0.84 fL | PT (300 mg/kg-day): 17.12 s | RBC (300 mg/kg-day): 8.946±0.337 M/µL | Total BW change (300 mg/kg-day): 300.61 g | Total Food Consumed (300 mg/kg-day): 2196 g
